{"source": "patent US20260027380A1", "about": "“TECHNIQUES FOR MAGNETIC NANOCLUSTER-BASED COMBINATION THERAPY” (William Marsh Rice University, priority 2022, published 2026)", "system": "MC-38 cells", "test": "Detection of DNA damage (γ-H2AX staining)", "assay_type": "cell-based, murine", "conditions": "without AMF", "procedure": "Hyperthermia treatment may induce lipid peroxidation, DNA damage, protein denaturation, and cell organelle disruption. In addition, carbon-centered free radicals generated from AAPH are highly reactive and can damage lipid, DNA, protein, and other biomolecules, leading to cell death. Thus, to understand the cell-killing mechanisms of IONC-AAPH under AMF, the effects of IONC-AAPH on various cellular components, including DNA, F-actin, mitochondria, gluthathione (GSH), and lipids, were evaluated. γ-H2AX is a sensitive marker of DNA damage and has been extensively used in research and clinical studies. It forms foci around the site of DNA double-strand break (DSB).\nFIG. 7 depicts the quantification of γ-H2AX expression based on fluorescence intensity.\nDetection of DNA damage: The DNA damage induced by IONC-AAPH treatment was detected by γ-H2AX staining. MC-38 cells were seeded in 4-compartment cell culture dishes and cultured overnight. Then the cells were treated with 300 μg Fe/mL of IONC-AAPH or IONC at 37° C. or under AMF for 90 min. Four hours after the treatment, the cells were fixed with 4% paraformaldehyde for 20 min, permeabilized with 0.2% Triton X-100 for 20 min and blocked with 3% bovine serum albumin (BSA) for 30 min at room temperature. […] The cells were imaged with a Nikon A1-Rsi confocal microscope and the fluorescence intensity of γ-H2AX was analyzed with ImageJ software.", "data": [{"smiles": "CC(C)(N=NC(C)(C)C(=N)N)C(=N)N.Cl.Cl", "note": "[AAPH, 2,2′-azobis(2-amidinopropane) dihydrochloride]", "values": [{"measurement": "γ-H2AX foci (DNA damage)", "result": "low numbers of γ-H2AX foci"}]}]}
